Test results taken from patent publication US20220023269A1, “Methods Of Treating Diabetes In Severe Insulin-Resistant Diabetic Subjects” (Balticgruppen Bio AB, priority 2018, published 2022).

What was measured:
CBA mice on HFD [1] = assay: Indirect calorimetry measurements; format: in vivo; conditions: 11 w
Method: VO2 and VCO2 rates were measured during 3 days by indirect calorimetry in TSE PhenoMaster Calorimetry metabolic cages (TSE Systems GmbH). The respiratory exchange ratio (RER) was calculated as a ratio of VCO2 produced/VO2 consumed. […] Energy expenditure (EE) was calculated as the product of the calorific value (CV) of oxygen [=3.815+(1.232×RER)] and the volume of O2 consumed, i.e. [EE=CV×VO2 (kcal/h)] and related to lean weight.

CBA mice on HFD [2] = assay: Arginine-stimulated insulin secretion; format: in vivo; conditions: 0.8 mg/g in HFD, 11 w; arginine 1 g/kg i.p.
Method: Arginine-stimulated insulin secretion was determined following i.p. injection of arginine (SIGMA #A5131) (1 g/kg body weight) in non-fasted 21 weeks old CBA mice that had been on HFD or test material-HFD (0.8 mg/g) for 11 w. Blood glucose was measured using Glucometer (Ultra 2, One Touch) and plasma insulin analysed via the ultrasensitive mouse insulin ELISA kit (Chrystal Chem Inc. #90080). Area under the Curve (AUC) was calculated according to the trapezoid rule.

AMPK = assay: SAMS peptide AMPK activity assay; format: biochemical; conditions: 2.5, 5 or 10 μM
Method: 50 ng AMPK (Upstate #14-305) was mixed in various combination with 2.5, 5 or 10 μM test material or 20 μM AMP (Sigma #A2002) in buffer (40 mM Hepes pH7.45, 0.5 mM DTT, 2 mM MgCl2, 0.1% DMSO). In all settings 10 μg SAMS and 0.03 μCi/μl ^32P ATP (Perkin Elmer #NEG502Z500UC) were added. Total reaction volume was 25 μl, all components mixed on ice and the reaction carried out at 37° C., 15 minutes, before terminated with 5 μl phosphoric acid, and placed back on ice. 25 μl reaction were dried in on Whatman P81 filters, 50° C., 2 minutes, washed 3 times in 250 ml 1% phosphoric acid, 2 minutes, before added to 4 ml liquid scintillation cocktail (Perkin Elmer #1200-437) and counted, 1 minute, in a Wallac 1414 beta counter. The radioactivity correlates to enzyme activity.

Zucker rats = assay: Infrared thermal imaging; format: in vivo; conditions: 10 mg/kg/day, 12 days
Method: Skin temperature of non-sedated Zucker rats that had been treated with test material (10 mg/kg/day) or vehicle for 12 days was recorded with an infrared camera (FLIR ix series Extech IRC30, FLIR systems Inc.) and analysed with a specific software package (FLIR QuickReport version 1.2 SP2 (1.0.1.217). 9 rats per group was used and mean and maximum skin surface temperatures were measured for each animal 2 hours after final dose administration.

[3] = tested on: obese, diabetic hIAPPtg mice; assay: Diet switch in hIAPPtg mice: HFD 9 w then test material-HFD (2 mg/g) 7 w; format: in vivo
Method: 10-11 weeks old male hIAPPtg; CBA mice and wild type littermates were fed HFD for 9 weeks. After 9 weeks mice were either sacrificed or randomised into two groups either continuing on HFD or switched to test material-HFD (2 mg/g) for an additional 7 weeks.
Food intake was measured weekly by giving each cage 200 g pellet. After one week, the amount of pellets consumed were calculated and adjusted according to the number of animals/cage. Body weight was measured weekly. Body composition was assessed using EchoMRI.
Islets amyloid was quantification was done on pancreatic tissues isolated from hIAPPtg mice on HFD for 16 weeks (n=7 mice/n=69 islets) and hIAPPtg mice on HFD for 9 weeks then switched to test material-HFD (2 mg/g) for 7 weeks (n=5 mice/n=48 islets). Isolated pancreases was direct frozen, sectioned, and amyloid content quantified by staining with Thioflavin-S as previously described (Reference 2). For ex vivo analyses, islets were isolated by collagenase digestion of the pancreas (Reference 1) and cultured in RPMI medium 1640 (GIBCO #11879-0) supplemented with 11.1 or 22.2 mM glucose (GIBCO #A24940-01), 1% fetal bovine serum (GIBCO #10500), 50 U; μg/ml Pen/Strep (Gibco #15140-122), 10 mM Hepes (Umeå University, Laboratory medicine), 1 mM sodium pyruvate (GIBCO #11360-039) and 0.1% 2-Mercaptoethanol (Sigma #M3148). 0, 2.5, 5.0, and 10 μM test material were added from day 0 of culture. For assessing the effect of autophagy inhibition, 3-Methyladenine (3-MA, Aldrich #M9281), 5 μM, was added from day 0 of culture in combination with test material, 5 μM. The control contained DMSO 1:2000. Medium and compounds were changed every second day. After 92 hours of treatment islets were embedded, sectioned and amyloid content quantified by staining with Thioflavin-S as previously described (Reference 2). A minimum of 3 independent experiments was evaluated.

Wistar rats = assay: 6 months oral gavage in Wistar rats; format: in vivo; conditions: 100, 300 and 600 mg/kg/day gavage, RD, vs vehicle
Method: 8-10 weeks old Wistar male and female rats were treated by oral gavage with vehicle or test material at 100, 300 or 600 mg/kg/day for 6 months.

[4] = 0.8 mg/g in HFD, light and dark periods

O=C(Nc1nc(=O)n(Cc2ccc(Cl)cc2)s1)c1ccc(Cl)cc1 [test material, 4-chloro-N-[2-[(4-chlorophenyl)methyl]-3-oxo-1,2,4-thiadiazol-5-yl]benzamide]
energy expenditure (EE) (CBA mice on HFD [1]; [4]): significantly increased | oxygen consumption (VO2) (CBA mice on HFD [1]; [4]): significantly increased | respiratory exchange ratio (RER) (CBA mice on HFD [1]; 0.8 mg/g, day 2 light period, all 3 days dark period): significantly decreased | arginine stimulation of insulin secretion, increase vs HFD (CBA mice on HFD [2]): 2 fold | allosteric activation of AMPK (AMPK): did not allosterically activate AMPK | skin-surface temperature (Zucker rats): increased | body fat ([3]; 2 mg/g): induced body weight and body fat loss | body weight ([3]; 2 mg/g): induced body weight and body fat loss | amount of islet amyloid formed ([3]; 2 mg/g for 7 w, vs continued HFD): significantly reduced | established hyperglycemia (fasted blood glucose) ([3]; 2 mg/g, 6 w after the switch): reverted | established hyperinsulinemia (fasted insulin) ([3]; 2 mg/g, 6 w after the switch): reverted | established insulin resistance (HOMA-IR) ([3]; 2 mg/g, 6 w after the switch): reverted | heart/brain weight (Wistar rats): did not show increased heart/brain weight
